The structures appear in SMILES notation. Where a name gives a salt, the structure may show the parent alone.

The subject of test [1] is L6-myotubes. Description: Glucose uptake in differentiated L6-myotubes (3H-2-deoxyglucose), compared to isoproterenol. Type of test: cell-based. The conditions noted are these: agonist 1×10^−5 M, 50 nM 3H-2-deoxyglucose; for Emax at 10 µM: read-out: Biological example 1: glucose uptake, activity compared to that of isoproterenol. As to the method: (§1) L6-myoblasts were grown in Dulbecco's Modified Eagle's Medium (DMEM) containing 1 g/L glucose supplemented with 10% fetal bovine serum, 2 mM L-Glutamine, 50 U/mL penicillin, 50 μg/mL streptomycin and 10 mM HEPES. Cells were plated at 1×10^5 cells per mL in 24-well plates. After reaching 90% confluence the cells were grown in medium containing 2% FBS for 7 days where upon cells differentiated into myotubes.
Differentiated L6-myotubes were serum-starved overnight in medium containing 0.5% fatty-acid free BSA and stimulated with an agonist, with a final concentration of 1×10^−5 M. After 1 h 40 min the cells were washed with warm glucose free medium or PBS twice and another portion of agonist was added to the glucose free medium. After 20 min the cells were exposed to 50 nM ^3H-2-deoxyglucose for 10 min before washed with ice cold glucose free medium or PBS three times and lysed with 0.2 M NaOH, 400 μL/well, for 1 h at 60° C. The cell lysate was mixed with 4 mL scintillation buffer (Emulsifier Safe, Perkin Elmer) and the radioactivity was detected in a β-counter (Tri-Carb 4810TR, Perkin Elmer). The activity for each compound is compared to that of isoproterenol.

Test [2] deals with L6-myotubes. Briefly: Measurement of intracellular cAMP levels in differentiated L6 cells (alpha screen cAMP kit), compared to isoproterenol. It is filed as cell-based. The conditions noted are these: Rattus norvegicus, L6, 0.25 h, agonist 1×10^−5 M, 15 min, read-out: Biological example 2: intracellular cAMP levels, activity compared to that of isoproterenol. As to the method:
as §1
Differentiated cells were serum-starved overnight and stimulated with an agonist, final concentration 1×10^−5 M, for 15 min in stimulation buffer (HBSS supplemented with 1% BSA, 5 mM HEPES and 1 mM IBMX, pH 7.4). The medium was aspirated and 100 μL of 95% EtOH was added to each well of the 24-well plate and cells were kept at −20° C. overnight. The EtOH was allowed to evaporate and 500 μL of lysis buffer (1% BSA, 5 mM HEPES and 0.3% Tween-20, pH 7.4) was added to each well. The plate was kept at −80° C. for 30 min and then at −20° C. until the day of detection when the samples were thawed. Intracellular cAMP levels were detected using an alpha screen cAMP kit (6760635D from Perkin Elmer). The activity for each compound is compared to that of isoproterenol.
(Cyclic AMP is a second messenger, typically raised through Gs and lowered through Gi signalling.)

Turning to `O[C@@H](CNCC[C@H]1CC[C@H](OCc2ccccc2)CC1)c1cccc(F)c1` [Example 45, (R)-2-((2-((1r,4R)-4-(Benzyloxy)cyclohexyl)ethyl)amino)-1-(3-fluoro-phenyl)ethan-1-ol], the Emax at 10 µM with L6-myotubes [1] is 25 to 50%; in the test with L6-myotubes [2] it was less than 25%.
For `O[C@@H](CNCC[C@H]1CC[C@H](O)CC1)c1cccc(F)c1` [Example 46, (1R,4r)-4-(2-(((R)-2-(3-Fluorophenyl)-2-hydroxyethyl)amino)ethyl)-cyclohexan-1-ol], in that order: 25 to 50% and less than 25%.
With `O[C@@H](CNCC[C@H]1CC[C@H](OCc2ccccc2)CC1)c1cncc(F)c1` [Example 47, (R)-2-((2-((1r,4R)-4-(Benzyloxy)cyclohexyl)ethyl)amino)-1-(5-fluoropyridin-3-yl)ethan-1-ol], the Emax at 10 µM in the test with L6-myotubes [1] and with L6-myotubes [2] was less than 25% each time.
As to `O[C@@H](CNCC[C@H]1CC[C@H](O)CC1)c1cncc(F)c1` [Example 48, (1R,4r)-4-(2-(((R)-2-(5-Fluoropyridin-3-yl)-2-hydroxyethyl)amino)-ethyl)cyclohexan-1-ol], the figures for the Emax at 10 µM with L6-myotubes [1] and in the test with L6-myotubes [2] were 25 to 50% and less than 25%, respectively.
In the case of `CC(C)(C[C@H]1CC[C@@H](O)CC1)NC[C@H](O)c1cccc(F)c1.Cl` [Example 49, (1S,4s)-4-(2-(((R)-2-(3-Fluorophenyl)-2-hydroxyethyl)amino)-2-methylpropyl)cyclohexan-1-ol hydrochloride], the “Biological example 1: glucose uptake, activity compared to that of isoproterenol” value in the test on L6-myotubes [1] is reported as “+ +”. In the test on L6-myotubes [2], the Emax at 10 µM was less than 25%.
For `CC(C)(C[C@H]1CC[C@@H](O)CC1)NC[C@H](O)c1cncc(F)c1.Cl` [Example 50, (1S,4s)-4-(2-(((R)-2-(5-Fluoropyridin-3-yl)-2-hydroxyethyl)amino)-2-methylpropyl)cyclohexan-1-ol hydrochloride], in that order: “+ + +” and less than 25%.
For `CC(C)(C[C@H]1CC[C@H](O)CC1)NC[C@H](O)c1cccc(F)c1.Cl` [Example 51, (1R,4r)-4-(2-(((R)-2-(3-Fluorophenyl)-2-hydroxyethyl)amino)-2-methylpropyl)cyclohexan-1-ol hydrochloride], in the test on L6-myotubes [1], the “Biological example 1: glucose uptake, activity compared to that of isoproterenol” value is reported as “+ + +”. In the test with L6-myotubes [2], the Emax at 10 µM was less than 25%.
On the same counts, the results for `CC(C)(C[C@H]1CC[C@H](O)CC1)NC[C@H](O)c1cncc(F)c1` [Example 52, (1R,4r)-4-(2-(((R)-2-(5-Fluoropyridin-3-yl)-2-hydroxyethyl)amino)-2-methylpropyl)cyclohexan-1-ol] are “+ + +” and less than 25%.
Turning to `O[C@@H](CNCCCC1CCC(OCc2ccccc2)CC1)c1cccc(F)c1` (stereo partly drawn) [Example 53, (R)-2-((3-((1r,4S)-4-(Benzyloxy)cyclohexyl)propyl)amino)-1-(3-fluoro-phenyl)ethan-1-ol], the Emax at 10 µM in the test on L6-myotubes [1] was 25 to 50%; in the test with L6-myotubes [2] it was less than 25%.
On the same counts, the results for `O[C@@H](CNCCCC1CCC(OCc2ccccc2)CC1)c1cncc(F)c1` (stereo partly drawn) [Example 54, (R)-2-((3-((1r,4S)-4-(Benzyloxy)cyclohexyl)propyl)amino)-1-(5-fluoro-pyridin-3-yl)ethan-1-ol] are 25 to 50% and less than 25%.
As to `O[C@@H](CNCCC[C@H]1CC[C@@H](OCc2ccccc2)CC1)c1cccc(F)c1` [Example 55, (R)-2-((3-((1s,4R)-4-(Benzyloxy)cyclohexyl)propyl)amino)-1-(3-fluoro-phenyl)ethan-1-ol], the Emax at 10 µM is 25 to 50% with L6-myotubes [1] and less than 25% in the test on L6-myotubes [2].
Turning to `O[C@@H](CNCCC[C@H]1CC[C@@H](OCc2ccccc2)CC1)c1cncc(F)c1` [Example 56, (R)-2-((3-((1s,4R)-4-(Benzyloxy)cyclohexyl)propyl)amino)-1-(5-fluoro-pyridin-3-yl)ethan-1-ol], in the test on L6-myotubes [1], the “Biological example 1: glucose uptake, activity compared to that of isoproterenol” value is given as “+ +”. Further, the Emax at 10 µM in the test on L6-myotubes [2] is less than 25%.
On the same counts, the results for `O[C@@H](CNCCC[C@H]1CC[C@H](O)CC1)c1cccc(F)c1` [Example 57, (1S,4r)-4-(3-(((R)-2-(3-Fluorophenyl)-2-hydroxyethyl)amino)propyl)-cyclohexan-1-ol] are “+ +” and less than 25%.
Consider `O[C@@H](CNCCC[C@H]1CC[C@H](O)CC1)c1cncc(F)c1` [Example 58, (1S,4r)-4-(3-(((R)-2-(5-Fluoropyridin-3-yl)-2-hydroxyethyl)amino)-propyl)cyclohexan-1-ol], for which the Emax at 10 µM was 25 to 50% with L6-myotubes [1] and less than 25% with L6-myotubes [2].
For `O[C@@H](CNCCC[C@H]1CC[C@@H](O)CC1)c1cccc(F)c1` [Example 59, (1R,4s)-4-(3-(((R)-2-(3-Fluorophenyl)-2-hydroxyethyl)amino)propyl)-cyclohexan-1-ol], in that order: 25 to 50% and less than 25%.
With `O[C@@H](CNCCC[C@H]1CC[C@@H](O)CC1)c1cncc(F)c1` [Example 60, (1R,4s)-4-(3-(((R)-2-(5-Fluoropyridin-3-yl)-2-hydroxyethyl)amino)propyl)-cyclohexan-1-ol], the “Biological example 1: glucose uptake, activity compared to that of isoproterenol” value in the test with L6-myotubes [1] is given as “+ +”. The Emax at 10 µM in the test on L6-myotubes [2] was less than 25%.
For the compound `CC(C)(CC[C@H]1CC[C@H](O)CC1)NC[C@H](O)c1cccc(F)c1` [Example 61, (1S,4r)-4-(3-(((R)-2-(3-Fluorophenyl)-2-hydroxyethyl)amino)-3-methyl-butyl)cyclohexan-1-ol], the figures for the Emax at 10 µM with L6-myotubes [1] and with L6-myotubes [2] were 25 to 50% and less than 25%, respectively.
`CC(C)(CCC1CCC(O)CC1)NC[C@H](O)c1ccccc1F` (stereo partly drawn) [Example 62, (1S,4r)-4-(3-(((R)-2-(2-Fluorophenyl)-2-hydroxyethyl)amino)-3-methyl-butyl)cyclohexan-1-ol]: in the test on L6-myotubes [1], the “Biological example 1: glucose uptake, activity compared to that of isoproterenol” value was “+ + +”. Also, the Emax at 10 µM with L6-myotubes [2] is less than 25%.
For the compound `CC(C)(CC[C@H]1CC[C@H](O)CC1)NC[C@H](O)c1cncc(F)c1` [Example 63, (1S,4r)-4-(3-(((R)-2-(5-Fluoropyridin-3-yl)-2-hydroxyethyl)amino)-3-methylbutyl)cyclohexan-1-ol], the Emax at 10 µM in the test with L6-myotubes [1] is 25 to 50%; in the test on L6-myotubes [2], less than 25%.
Regarding `CC(C)(CC[C@H]1CC[C@@H](O)CC1)NC[C@H](O)c1cccc(F)c1` [Example 64, (1R,4s)-4-(3-(((R)-2-(3-Fluorophenyl)-2-hydroxyethyl)amino)-3-methyl-butyl)cyclohexan-1-ol], in the test with L6-myotubes [1], the “Biological example 1: glucose uptake, activity compared to that of isoproterenol” value was “+ + +”. The Emax at 10 µM in the test on L6-myotubes [2] is less than 25%.
As for `CC(C)(CC[C@H]1CC[C@@H](O)CC1)NC[C@H](O)c1ccccc1F` [Example 65, (1R,4s)-4-(3-(((R)-2-(2-Fluorophenyl)-2-hydroxyethyl)amino)-3-methyl-butyl)cyclohexan-1-ol], the “Biological example 1: glucose uptake, activity compared to that of isoproterenol” value with L6-myotubes [1] was “+ + +”. In addition, the Emax at 10 µM in the test on L6-myotubes [2] is 25 to 50%.
As for `CC(C)(CC[C@H]1CC[C@@H](O)CC1)NC[C@H](O)c1cncc(F)c1` [Example 66, (1R,4s)-4-(3-(((R)-2-(5-Fluoropyridin-3-yl)-2-hydroxyethyl)amino)-3-methylbutyl)cyclohexan-1-ol dihydrochloride], in the test with L6-myotubes [1], the “Biological example 1: glucose uptake, activity compared to that of isoproterenol” value is “+ +”. For the same compound, the Emax at 10 µM in the test with L6-myotubes [2] was less than 25%.
`CC(=O)N[C@H]1CC[C@H](CNC[C@H](O)c2cccc(F)c2)CC1` [Example 67, N-((1R,4r)-4-((((R)-2-(3-Fluorophenyl)-2-hydroxyethyl)amino)methyl)-cyclohexyl)acetamide]: the Emax at 10 µM with L6-myotubes [1] is 25 to 50%; in the test with L6-myotubes [2] it was less than 25%.
On to `CC(=O)N[C@H]1CC[C@H](CNC[C@H](O)c2cncc(F)c2)CC1` [Example 68, N-((1R,4r)-4-((((R)-2-(5-Fluoropyridin-3-yl)-2-hydroxyethyl)amino)-methyl)cyclohexyl)acetamide], for which the Emax at 10 µM in the test with L6-myotubes [1] is 25 to 50%; with L6-myotubes [2], less than 25%.
On to `O=C(N[C@H]1CC[C@H](CNC[C@H](O)c2cccc(F)c2)CC1)c1ccccc1` [Example 69, N-((1R,4r)-4-((((R)-2-(3-Fluorophenyl)-2-hydroxyethyl)amino)-methyl)cyclohexyl)benzamide], for which the “Biological example 1: glucose uptake, activity compared to that of isoproterenol” value in the test on L6-myotubes [1] was “+ + +”. Further, the Emax at 10 µM in the test with L6-myotubes [2] is less than 25%.
Regarding `O=C(N[C@H]1CC[C@H](CNC[C@H](O)c2cncc(F)c2)CC1)c1ccccc1` [Example 70, N-((1R,4r)-4-((((R)-2-(5-Fluoropyridin-3-yl)-2-hydroxyethyl)amino)methyl)-cyclohexyl)benzamide], the Emax at 10 µM was 25 to 50% in the test with L6-myotubes [1] and less than 25% in the test with L6-myotubes [2].

The values above are taken from patent publication US20240390298A1, “CYCLOHEXYL BETA-HYDROXY ALKYL AMINES AND MEDICAL USES THEREOF” (ATROGI AB, priority 2021, published 2024).
